Columns and labels:
[1] = Stability test (high temperature, high humidity and light tests); assay type: physicochemical; conditions: for stability (in words): high temperature, high humidity or light conditions for 10 days
Protocol: High temperature test: An appropriate amount of the test product was added into a flat weighing bottle and spread into a thin layer with thickness ≤5 mm. The bottle was placed at 60° C. or 40° C. for 10 days. Samples were taken at the 5th and 10th days to check the appearance, related substances and purity.
High humidity test: An appropriate amount of the test product was added into a flat weighing bottle and spread into a thin layer with thickness 5 mm. The bottle was placed at 25° C. and a relative humidity of 90%±5% for 10 days. Samples were taken at the 5th and 10th days to check the appearance, related substances and purity. At the same time, the weight of the test product before and after the test were accurately weighed to investigate the moisture absorption and deliquescence performance of the test product. Light test: An appropriate amount of the test product was added into a flat weighing bottle and spread into a thin layer with thickness ≤5 mm. The bottle was opened and placed in a light box (with UV) at the illuminance 4500±500 lx, UV light≥0.7 w/m^2 for 10 days. Samples were taken at the 5th and 10th days to check the appearance, related substances and purity.

[2] = Pharmacokinetic evaluation of experimental animals after oral administration; assay type: in vivo, Beagle dogs; conditions: for AUC0-t / Cmax: beagle dogs, oral via capsules, 10 mg/kg; for absorption in the body / in animals (in words): dog, in vivo; for exposure / pharmacokinetic properties (in words): experimental animals, oral
Protocol: Blood samples were taken at 0.25, 0.5, 1, 2, 4, 6, 8 and 24 hours from forelimb vein after the administration, and collected in anticoagulation tube with EDTA-K2. After liquid-liquid extraction, the blood samples were quantitatively analyzed on a triple quadrupole tandem mass spectrometer using multiple reactive ion monitoring (MRM). Pharmacokinetic parameters (AUC0-t and Cmax) were calculated using a noncompartmental method by WinNonLin 6.3 software.

[3] = Experimental research on hygroscopicity; assay type: physicochemical; conditions: 25° C.±1° C., relative humidity 90%±2%, 24 hours
Protocol: A dry stoppered glass weighing bottle (outer diameter was 50 mm, height was 15 mm) was placed in a suitable constant temperature dryer (a saturated solution of ammonium chloride or ammonium sulfate was placed at the bottom, the relative humidity was within 90%±2%) at 25° C.±1° C. the day before, and the weighing bottle was precisely weighed (m1). An appropriate amount of the test product was spread flat in the above weighing bottle. The thickness of the test product was generally about 1 mm, and the weighing bottle was precisely weighed (m2). The weighing bottle was opened and placed for 24 hours under the above constant temperature and humidity conditions with the bottle cap. The weighing bottle was closed and precisely weighed (m3), and the weight gain percentage (%) was calculated. Testing method: According to Ph.

[4] = High humidity (90% RH), 25° C., 5 days
[5] = High humidity (90% RH), 25° C., 10 days
[6] = High temperature (60° C.), 5 days
[7] = High temperature (60° C.), 10 days
[8] = Light (4500±500 lx, UV light≥0.7 w/m^2), 5 days
[9] = Light (4500±500 lx, UV light≥0.7 w/m^2), 10 days

COC(=O)C1=C(CN2CCN3C(=O)N(c4ccc(CCC(=O)O)cc4F)C[C@@H]3C2)N=C(c2nccs2)N[C@H]1c1ccc(F)cc1Cl.O=S(=O)(O)O [Sulfate crystal form A of the compound having Formula (Ia)] [3-(4-((S)-7-(((R)-6-(2-chloro-4-fluorophenyl)-5-(methoxycarbonyl)-2-(thiazol-2-yl)-1,6-dihydropyrimidin-4-yl)methyl)-3-oxohexahydroimidazo[1,5-a]pyrazine-2(3H)-yl)-3-fluorophenyl)prop ionic acid sulfate crystal form A]
Purity (%) ([1]; 0 days): 99.14%
Purity (%) [1, 4]: 99.17%
Purity (%) [1, 5]: 99.22%
Purity (%) [1, 6]: 99.16%
Purity (%) [1, 7]: 99.12%
Purity (%) [1, 8]: 99.17%
Purity (%) [1, 9]: 99.15%
stability (in words) [1]: very good

COC(=O)C1=C(CN2CCN3C(=O)N(c4ccc(CCC(=O)O)cc4F)C[C@@H]3C2)N=C(c2nccs2)N[C@H]1c1ccc(F)cc1Cl.O=S(=O)(O)O [Sulfate crystal form B of the compound having Formula (Ia)] [3-(4-((S)-7-(((R)-6-(2-chloro-4-fluorophenyl)-5-(methoxycarbonyl)-2-(thiazol-2-yl)-1,6-dihydropyrimidin-4-yl)methyl)-3-oxohexahydroimidazo[1,5-a]pyrazine-2(3H)-yl)-3-fluorophenyl)prop ionic acid sulfate crystal form B]
Purity (%) ([1]; 0 days): 98.98%
Purity (%) [1, 4]: 98.90%
Purity (%) [1, 5]: 98.94%
Purity (%) [1, 6]: 98.94%
Purity (%) [1, 7]: 98.68%
Purity (%) [1, 8]: 99.01%
Purity (%) [1, 9]: 98.91%
stability (in words) [1]: very good
AUC0-t [2]: 10840 ng·h/mL
Cmax [2]: 6620 ng/mL
absorption in the body / in animals (in words) [2]: better absorbed
exposure / pharmacokinetic properties (in words) [2]: higher exposure
Weight gain of moisture absorption (%) [3]: 0.97%
hygroscopicity judgment [3]: slightly hygroscopicity

COC(=O)C1=C(CN2CCN3C(=O)N(c4ccc(CCC(=O)O)cc4F)C[C@@H]3C2)N=C(c2nccs2)N[C@H]1c1ccc(F)cc1Cl.Cl [3-(4-((S)-7-(((R)-6-(2-chloro-4-fluorophenyl)-5-(methoxycarbonyl)-2-(thiazol-2-yl)-1,6-dihydropyrimidin-4-yl)methyl)-3-oxohexahydroimidazo[1,5-a]pyrazine-2(3H)-yl)-3-fluorophenyl)prop ionic acid hydrochloride crystal form A]
Purity (%) ([1]; 0 days): 99.39%
Purity (%) [1, 4]: 99.37%
Purity (%) [1, 5]: 99.30%
Purity (%) [1, 6]: 99.36%
Purity (%) [1, 7]: 99.22%
Purity (%) [1, 8]: 99.34%
Purity (%) [1, 9]: 99.26%
stability (in words) [1]: very good
AUC0-t [2]: 8630 ng·h/mL
Cmax [2]: 4980 ng/mL
absorption in the body / in animals (in words) [2]: better absorbed
exposure / pharmacokinetic properties (in words) [2]: higher exposure
Weight gain of moisture absorption (%) [3]: 1.32%
hygroscopicity judgment [3]: slightly hygroscopicity

COC(=O)C1=C(CN2CCN3C(=O)N(c4ccc(CCC(=O)O)cc4F)C[C@@H]3C2)N=C(c2nccs2)N[C@H]1c1ccc(F)cc1Cl.O=P(O)(O)O [Phosphate crystal form C of the compound having Formula (Ia)] [3-(4-((S)-7-(((R)-6-(2-chloro-4-fluorophenyl)-5-(methoxycarbonyl)-2-(thiazol-2-yl)-1,6-dihydropyrimidin-4-yl)methyl)-3-oxohexahydroimidazo[1,5-a]pyrazine-2(3H)-yl)-3-fluorophenyl)prop ionic acid phosphate crystal form C]
Purity (%) ([1]; 0 days): 99.34%
Purity (%) [1, 4]: 99.29%
Purity (%) [1, 5]: 99.36%
Purity (%) [1, 6]: 87.42%
Purity (%) [1, 7]: 60.31%
Purity (%) [1, 8]: 99.30%
Purity (%) [1, 9]: 99.30%
stability under high temperature (in words) ([1]; high temperature (such as 60° C.)): unstable
AUC0-t [2]: 1900 ng·h/mL
Cmax [2]: 907 ng/mL

CN(C)C=O.COC(=O)C1=C(CN2CCN3C(=O)N(c4ccc(CCC(=O)O)cc4F)C[C@@H]3C2)NC(c2nccs2)=N[C@H]1c1ccc(F)cc1Cl [3-(4-((S)-7-(((R)-6-(2-chloro-4-fluorophenyl)-5-(methoxycarbonyl)-2-(thiazol-2-yl)-3,6-dihydropyrimidin-4-yl)methyl)-3-oxohexahydroimidazo[1,5-a]pyrazine-2(3H)-yl)-3-fluorophenyl)prop ionic acid N,N-dimethylformamide complex]
Purity (%) ([1]; 0 days): 98.63%
Purity (%) [1, 4]: 98.87%
Purity (%) [1, 5]: 98.71%
Purity (%) [1, 6]: 98.48%
Purity (%) [1, 7]: 97.76%
Purity (%) [1, 8]: 98.82%
Purity (%) [1, 9]: 98.48%
stability (in words) [1]: very good

COC(=O)C1=C(CN2CCN3C(=O)N(c4ccc(CCC(=O)O)cc4F)C[C@@H]3C2)N=C(c2nccs2)N[C@H]1c1ccc(F)cc1Cl.O=P(O)(O)O [Phosphate crystal form A of the compound having Formula (Ia)] [3-(4-((S)-7-(((R)-6-(2-chloro-4-fluorophenyl)-5-(methoxycarbonyl)-2-(thiazol-2-yl)-1,6-dihydropyrimidin-4-yl)methyl)-3-oxohexahydroimidazo[1,5-a]pyrazine-2(3H)-yl)-3-fluorophenyl)prop ionic acid phosphate crystal form A]
Purity (%) ([1]; 0 days): 99.13%
Purity (%) [1, 4]: 99.04%
Purity (%) [1, 5]: 99.07%
Purity (%) [1, 6]: 98.86%
Purity (%) [1, 7]: 98.39%
Purity (%) [1, 8]: 99.03%
Purity (%) [1, 9]: 99.06%
stability (in words) [1]: very good
AUC0-t [2]: 4350 ng·h/mL
Cmax [2]: 2690 ng/mL

COC(=O)C1=C(CN2CCN3C(=O)N(c4ccc(CCC(=O)O)cc4F)C[C@@H]3C2)N=C(c2nccs2)N[C@H]1c1ccc(F)cc1Cl.CS(=O)(=O)O [3-(4-((S)-7-(((R)-6-(2-chloro-4-fluorophenyl)-5-(methoxycarbonyl)-2-(thiazol-2-yl)-1,6-dihydropyrimidin-4-yl)methyl)-3-oxohexahydroimidazo[1,5-a]pyrazine-2(3H)-yl)-3-fluorophenyl)propionic acid methanesulfonate crystal form A]
Purity (%) ([1]; 0 days): 99.40%
Purity (%) [1, 4]: 99.37%
Purity (%) [1, 5]: 99.36%
Purity (%) [1, 6]: 99.15%
Purity (%) [1, 7]: 98.68%
Purity (%) [1, 8]: 99.37%
Purity (%) [1, 9]: 99.40%
stability (in words) [1]: very good

Br.COC(=O)C1=C(CN2CCN3C(=O)N(c4ccc(CCC(=O)O)cc4F)C[C@@H]3C2)N=C(c2nccs2)N[C@H]1c1ccc(F)cc1Cl [3-(4-((S)-7-(((R)-6-(2-chloro-4-fluorophenyl)-5-(methoxycarbonyl)-2-(thiazol-2-yl)-1,6-dihydropyrimidin-4-yl)methyl)-3-oxohexahydroimidazo[1,5-a]pyrazine-2(3H)-yl)-3-fluorophenyl)propionic acid hydrobromide crystal form A]
Purity (%) ([1]; 0 days): 98.41%
Purity (%) [1, 4]: 98.82%
Purity (%) [1, 5]: 98.69%
Purity (%) [1, 6]: 98.43%
Purity (%) [1, 7]: 98.93%
Purity (%) [1, 8]: 98.80%
Purity (%) [1, 9]: 98.88%
stability (in words) [1]: very good
AUC0-t [2]: 5690 ng·h/mL
Cmax [2]: 3340 ng/mL

— patent publication US20240025905A1, “SALTS OF DIHYDROPYRIMIDINE DERIVATIVES, COMPLEXES AND USES THEREOF IN MEDICINE” (SUNSHINE LAKE PHARMA CO., LTD., priority 2020, published 2024)
